Laboratory results from patent US20100249061A1, “OLIGOSACCHARIDES, PREPARATION METHOD AND USE THEREOF, AND PHARMACEUTICAL COMPOSITIONS CONTAINING SAME” (Aventis Pharma S.A., priority 2004, published 2010).
Read-outs that look alike come from different tables or passages of the source.

How the values were obtained:
heparanase = molecular target: T1, heparanase (Homo sapiens, UniProt Q9Y251); assay: Heparanase inhibition in an enzymatic system (degradation of fondaparinux, residual anti-factor Xa activity); assay type: biochemical
T1 sequence (Q9Y251 36-543): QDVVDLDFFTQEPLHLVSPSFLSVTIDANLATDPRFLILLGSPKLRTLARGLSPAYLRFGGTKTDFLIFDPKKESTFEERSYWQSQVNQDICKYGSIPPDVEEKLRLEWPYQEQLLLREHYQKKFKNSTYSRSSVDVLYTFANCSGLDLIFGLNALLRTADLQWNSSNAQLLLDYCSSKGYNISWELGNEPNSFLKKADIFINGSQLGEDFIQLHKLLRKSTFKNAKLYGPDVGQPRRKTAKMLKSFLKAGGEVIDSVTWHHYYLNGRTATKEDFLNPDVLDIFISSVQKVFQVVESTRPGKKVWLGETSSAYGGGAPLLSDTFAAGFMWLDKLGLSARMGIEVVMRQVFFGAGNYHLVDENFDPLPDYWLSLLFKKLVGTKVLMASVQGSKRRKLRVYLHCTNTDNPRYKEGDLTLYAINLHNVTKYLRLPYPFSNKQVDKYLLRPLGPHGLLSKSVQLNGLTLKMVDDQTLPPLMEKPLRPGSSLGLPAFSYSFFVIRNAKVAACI
Method: The concentration of fondaparinux is determined by virtue of its anti-factor Xa activity.
The heparanase is produced by Sanofi-Synthélabo (Labège, France). The reagents for assaying factor Xa are sold by Chromogénix (Montpellier, France).
Increasing concentrations of a compound according to the invention, heparanase inhibitor ([…]), are mixed with a fixed concentration of heparanase (for each batch, preliminary experiments make it possible to determine the enzymatic activity sufficient for degradation of 0.45 μg/ml of fondaparinux added). After 5 minutes at 37° C., the mixture is brought into contact with the fondaparinux and left at 37° C. for 1 hour. The reaction is stopped by heating at 95° C. for 5 minutes. The residual fondaparinux concentration is finally measured by adding factor Xa and its specific chromogenic substrate (Ref. S2222).
50 μl of sodium acetate buffer (0.2 M, pH 4.2) are mixed with 50 μl of fondaparinux (0.45 μg/ml) and 59 μl of a heparanase solution. The mixture is incubated for 1 hour at 37° C. and then for 5 minutes at 95° C. The pH thus goes from 4.2 to 7. 100 μl of the reaction mixture are then mixed with 50 μl of 50 mM Tris buffer containing 175 mM NaCl and 75 mM EDTA, […]. The anti-factor Xa activity of the fondaparinux is measured in the following way:
100 μl of the solution obtained in step a) are mixed with 100 μl of AT (0.5 μg/ml). The mixture is kept at 37° C. for 2 minutes and 100 μl of factor Xa (7 nkat/ml) are then added. The mixture is kept at 37° C. for 2 minutes and 100 μl of chromogenic substrate (Ref.: S2222) (1 mM) are then added. The mixture is kept at 37° C. for 2 minutes and then 100 μl of acetic acid (50%) are added. The optical density is read at 405 nm. A percentage inhibition is determined relative to the control without inhibitor. A percentage inhibition curve makes it possible to calculate an IC50.

[1] = Stability in alkaline medium / physicochemical properties; conditions: loses 3-O-sulphated terminal glucosamine, converted to pentasaccharide ΔIs-IIaid-GlcA as soon as pH exceeds 8
Method: The depolymerization of the heparin takes place under the following conditions: 3 g of heparin from porcine mucous are dissolved in 30 ml of a solution of 0.2M NaCl, 0.02% BSA, 5 mM Na2HPO4, adjusted to pH 7. The depolymerization temperature is 16° C. 2 IU of heparinase 1 are initially introduced. After 7 days, an additional unit of heparinase 1 is added. After 15 days, the heparin depolymerization is considered to be finished. The reaction is monitored either by analytical […] on a TSK Super SW 2000 column (FIG. 1), or on a CTA-SAX column (FIG. 2a). The enzyme reaction may be considered to be sufficiently advanced when the proportion of oligosaccharides greater than octasaccharide in size is limited and when the two main sulphated hexasaccharides ΔIs-Isid-Isid and ΔIs-Isid-IIsglu in the mixture have been depolymerized to tetrasaccharides. When the enzyme reaction has finished, the solution is filtered through a 0.2 μm membrane and then injected, in 2 stages, onto a GC column filled with Biogel P10 (Bio Rad), in which a 0.2 N NaCl mobile phase circulates (FIG. 3). […] It is therefore very important to slightly acidify (pH between 5 and 6) the entire hexasaccharide fraction.

ATIII = ATIII (Homo sapiens, UniProt P01008); assay: Affinity for ATIII; assay type: binding
Chain of ATIII (P01008 33-464, species assumed): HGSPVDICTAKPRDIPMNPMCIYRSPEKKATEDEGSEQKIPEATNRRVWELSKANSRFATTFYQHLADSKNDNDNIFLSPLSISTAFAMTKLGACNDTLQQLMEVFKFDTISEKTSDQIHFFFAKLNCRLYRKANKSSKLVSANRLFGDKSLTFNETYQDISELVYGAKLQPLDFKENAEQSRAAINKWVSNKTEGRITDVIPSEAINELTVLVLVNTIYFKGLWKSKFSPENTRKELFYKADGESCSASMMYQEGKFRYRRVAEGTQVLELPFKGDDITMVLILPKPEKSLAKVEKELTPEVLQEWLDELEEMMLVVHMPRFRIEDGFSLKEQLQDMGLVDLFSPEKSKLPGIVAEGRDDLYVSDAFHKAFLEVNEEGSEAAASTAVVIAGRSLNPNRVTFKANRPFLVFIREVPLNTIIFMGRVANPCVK

[2] = Petitou et al., J. Biol. Chem. (1988); sodium salt; cited from earlier work
[3] = molecular target: T2, heparanase isolated from human peripheral blood leukocytes (PMN supernatant) (Homo sapiens, UniProt Q9Y251); assay: Heparanase degradation of 35-S-labelled heparan sulphate proteoglycan, gel permeation chromatography and scintillation counting; assay type: biochemical
T2 construct: The supernatants containing the heparanase are then collected; from tissue; host or cells: human peripheral blood leukocytes (buffy coats) enriched in PMNs; cell supernatant
T2 sequence (Q9Y251 36-543): T1 sequence (Q9Y251 36-543)
Source text: Radiolabelled heparin/heparan sulphate (HS) is degraded with heparanases, producing low molecular weight HS fragments which can be measured by gel permeation chromatography (FPLC) and counting of the collected fractions by liquid scintillation.
A uterine fibroblast cell line was used to prepare heparan sulphate (proteoglycan) labelled with 35-S by metabolic labelling. It has been shown that this cell line produces relatively large amounts of various heparan sulphate proteoglycans (HS-PGs), such as syndecans and glypican (Drzeniek et al., Blood 93:2884-2897, 1999).
The labelling is carried out by incubating the cells, with a cell density of approximately 1×10^6 cells/ml, in the presence of 35-S-sulphate at 33 μCi/ml in the tissue culture medium for 24 hours. The supernatants are then collected and a protease inhibitor, PMSF (phenylmethylsulfonyl fluoride) (1 mmol/l), is added. […]
200 μl of 35-S-labelled heparan sulphate (proteoglycans) adjusted to approximately 2200 cpm/ml (cpm=counts per minute) are incubated at 37° C. for 18 hours with 1 μl of PMN supernatant containing the heparanase. 200 μl of the mixture obtained above are sampled on a TSK 4000 gel permeation chromatography column (FPLC), and the fractions are collected and analyzed by liquid scintillation counting.
The degradation was measured according to the following formula: […]
For example, the percentage degradation is calculated as follows: the sum of the counts (cpm) in fractions 20-33 of the sample after treatment with the heparanase, minus the background noise count (cpm) (fractions 20-33) of the control sample, is divided by the total counts (fractions 12-33) applied to the column. […] A correction for the sulphatase activity is not necessary since no sulphatase activity could be detected.
The following heparanase inhibitors: unfractionated heparin (UF-H) and Hexa Iso ATIII were assayed via the protocol described above at three different concentrations. […] The data are expressed as percentage inhibition of the heparanase activity. […]

ΔIs-IIa-IIs [(Ia)]
% inhibition (heparanase; Concentration 1.00E−4 M): 53.8%

ΔIs-IIaid-IIsglu [Hexa Iso ATIII]
% inhibition (heparanase; Concentration 3.00E−5 M): 48.5% | stability in alkaline medium [1]: extremely fragile in alkaline medium | affinity for ATIII (ATIII): no affinity for ATIII | anti-thrombotic activity [2]: no anti-thrombotic activity | anti-thrombotic activity (Anti-thrombotic activity): devoid of anti-thrombotic activity | heparanase-inhibiting activity (conclusion in words) [3]: strong heparanase-inhibiting activity | heparanase-inhibiting activity (conclusion in words) ([3]; listed as hexasaccharide Iso ATIII): very good heparanase inhibitor | dose dependence of heparanase inhibition ([3]; three concentrations, FIG. 2 / FIG. 7): dose-dependant inhibition

ΔIs-Ia-IIs [(Im)]
% inhibition (heparanase; Concentration 3.00E−5 M): 54.1%

ΔIs-Is-IIa-IIs [(Ib)]
% inhibition (heparanase; Concentration 1.00E−5 M): 59.9%

ΔIs-Is-IIa-IIs [(Ic)]
% inhibition (heparanase; Concentration 3.00E−6 M): 59.2%

ΔIs-Is-Ia-IIs [(Id)]
% inhibition (heparanase; Concentration 3.00E−5 M): 53.9%

ΔIs-Is-Is-IIa-IIs [(If)]
% inhibition (heparanase; Concentration 3.00E−6 M): 58.4%

ΔIs-Is-Is-IIa-IIs [(Ig)]
% inhibition (heparanase; Concentration 1.00E−4 M): 55.8%

ΔIs-Is-Is-IIs [(Ie)]
% inhibition (heparanase; Concentration 3.00E−5 M): 59.1%

ΔIs-Is-Is-Ia-IIs [(Ih)]
% inhibition (heparanase; Concentration 3.00E−5 M): 55.5%

ΔIs-Is-Is-Is-IIs [(Ij)]
% inhibition (heparanase; Concentration 3.00E−5 M): 48.4%
